The results in this text go back to publication PMC9841532, “Exploring the Effect of Halogenation in a Series of Potent and Selective A2B Adenosine Receptor Antagonists” (Journal of Medicinal Chemistry, 2022).

In one data set the target is T1, hA1AR (Homo sapiens, UniProt P30542).
T1 sequence (P30542 1-326): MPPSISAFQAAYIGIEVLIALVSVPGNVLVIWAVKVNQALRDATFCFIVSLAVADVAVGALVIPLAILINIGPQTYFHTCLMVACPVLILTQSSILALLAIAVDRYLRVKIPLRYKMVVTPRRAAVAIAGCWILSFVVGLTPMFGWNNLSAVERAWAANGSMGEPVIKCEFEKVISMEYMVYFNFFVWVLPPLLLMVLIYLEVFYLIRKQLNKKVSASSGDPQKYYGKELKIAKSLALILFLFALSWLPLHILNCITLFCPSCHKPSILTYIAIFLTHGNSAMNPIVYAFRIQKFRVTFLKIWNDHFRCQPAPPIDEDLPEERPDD
Nature of the data set: Radioligand binding competition, [3H]DPCPX, membranes from CHO-A1 cells. The settings on record: 1 μM, [3H]DPCPX, human CHO cells, n = 2. An outline of the steps: (§1)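 Racemates, plus selected enantiomers after chiral resolution, were tested at 25 °C, with a 60 min incubation for one subtype and 30 min for others. Non-specific binding was defined with 10 μM or 100 μM R-PIA. Bound radioactivity was counted after washing and filtration.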

In a further data set the target is T2, hA2AAR (Homo sapiens, UniProt P29274).
T2 construct: expressed in transfected cells; host or cells: HeLa (HeLa-A2A) cell membranes
In words: Radioligand binding competition, [3H]ZM241385, membranes from HeLa-A2A cells. To be noted: 1 μM, [3H]ZM241385, human HeLa cells, n = 2. An outline of the steps: as §1

The target of another data set is T3, hA2BAR (Homo sapiens, UniProt P29275).
T3 construct: host or cells: HEK-293 (HEK-293-A2B) cell membranes
T3 sequence (P29275 1-332): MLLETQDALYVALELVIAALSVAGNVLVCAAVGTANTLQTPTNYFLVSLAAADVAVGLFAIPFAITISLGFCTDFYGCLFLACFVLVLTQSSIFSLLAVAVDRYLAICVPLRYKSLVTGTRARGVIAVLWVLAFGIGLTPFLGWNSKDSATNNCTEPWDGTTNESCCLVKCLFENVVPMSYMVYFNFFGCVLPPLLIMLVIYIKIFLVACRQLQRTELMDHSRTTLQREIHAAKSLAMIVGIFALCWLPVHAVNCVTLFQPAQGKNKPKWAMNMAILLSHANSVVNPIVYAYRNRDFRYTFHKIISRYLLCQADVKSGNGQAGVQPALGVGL
In words: Radioligand binding competition, [3H]DPCPX, membranes from HEK-293-A2B cells. The settings on record: for Ki: read-out: Ki hA2B; for Exp. dG: experimental binding free energy, Supplementary Table S3, unit not given (errors in kcal/mol). The arrangement: Exp. dG: unit not given here. The procedure, abridged: as §1

For another data set, the target named is T4, A2BAR (Homo sapiens, UniProt P29275).
T4 construct: expressed in transfected cells; host or cells: HEK-293 T cells permanently expressing pRK5-A2BAR^SNAP
T4 sequence (P29275 1-332): T3 sequence (P29275 1-332)
In words: cAMP accumulation assay in HEK-293 cells permanently expressing A2BAR-SNAP. In kind it is cell-based. To be noted: read-out: KB (hA2B). On the procedure:
To assess their ability to block A2BAR agonist intrinsic activity, the effect on A2BAR-mediated cAMP accumulation and cellular impedance was evaluated. To this end, we used HEK-293 cells permanently expressing the A2BAR^SNAP construct, which can be visualized upon staining the cells with a SNAP-fluorescent substrate.
Scale bar: […]. […] Data are expressed as mean ± SEM (n = 4).
cAMP accumulation was measured using the LANCE Ultra cAMP kit (PerkinElmer, Waltham, Massachusetts, USA) as previously described.[55] […] The 384-well plate was incubated 1 h at 22 °C in the dark and was then read on a CLARIOstar Microplate Reader (BMG Labtech, Durham, North Carolina, USA). […] Data were fitted by non-linear regression using GraphPad Prism 9 (San Diego, California, USA).

Data set [1] can be described thus: Solubility determination (nephelometry). In kind it is physicochemical. To be noted: 1:99 DMSO/PSB buffer, PBS pH 7, 37 °C. The method, then:
The solubility of selected compounds was evaluated by following a previously described method.[31] A 10 mM stock solution of the compound was serially diluted in 100% DMSO, and 2.5 μL of this solution was added to a 384-well UV-transparent plate (Greiner) containing 47.5 μL of PBS (pH = 7). The plate was incubated at 37 °C for 4 h, and the light scattering was measured in a NEPHELOstar Plus reader (BMG LABTECH). The data was fitted to a segmented linear regression for measuring the compound solubility.

The nature of data set [2]: Human microsomal stability. The settings on record: human microsomes; for microsomal stability percent (percentage remanent): sampling time 60 min; for microsomal CLint at 1 h / half-life at 1 h: human, pH 7.4; for microsomal CLint at 1 h: read-out: microsomal stability Clint (intrinsic clearance); for half-life at 1 h: read-out: microsomal stability t1/2. In kind it is in vitro ADME. On the procedure: The human microsomal stability of selected compounds was evaluated by following a previously described method.[31] The human microsomes employed were purchased from Tebu-Xenotech. The compound was incubated with the microsomes at 37 °C in a 50 mM phosphate buffer (pH = 7.4) containing 3 mM MgCl2, 1 mM NADP, 10 mM glucose-6-phosphate, and 1 U/mL glucose-6-phosphate-dehydrogenase. Samples (75 μL) were taken from each well at 0, 10, 20, 40, and 60 min and transferred to a plate containing 4 °C 75 μL acetonitrile and 30 μL of 0.5% formic acid in water was added for improving the chromatographic conditions. The plate was centrifuged (46,000 g, 30 min), and supernatants were taken and analyzed in a UPLC-MS/MS (Xevo TQD, Waters) by employing a BEH C18 column and an isocratic gradient of 0.1% formic acid in water:0.1% formic acid acetonitrile (60:40). The metabolic stability of the compounds was calculated from the logarithm of the remaining compounds at each of the time point studied.

The mark [3] stands for this setting: displacement of specific [3H]DPCPX binding in human HEK-293 cells, n = 3.

≈ marks a conversion by molar mass, not a printed value. Where two headings read alike, the source gives them in different places. Bounds are passed on as bounds.

T2 sequence (P29274 whole entry): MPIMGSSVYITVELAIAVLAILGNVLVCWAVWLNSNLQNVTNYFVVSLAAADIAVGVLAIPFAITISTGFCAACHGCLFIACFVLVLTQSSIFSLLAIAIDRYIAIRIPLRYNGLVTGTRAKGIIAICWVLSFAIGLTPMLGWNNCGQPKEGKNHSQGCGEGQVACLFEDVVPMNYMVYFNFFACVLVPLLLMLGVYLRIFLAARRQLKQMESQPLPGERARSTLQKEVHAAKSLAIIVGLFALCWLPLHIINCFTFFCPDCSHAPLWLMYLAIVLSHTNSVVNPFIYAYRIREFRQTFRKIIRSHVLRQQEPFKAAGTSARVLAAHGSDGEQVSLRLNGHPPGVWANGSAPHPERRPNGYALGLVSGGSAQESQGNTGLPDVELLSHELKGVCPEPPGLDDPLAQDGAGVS

In general, Ki refers to the dissociation constant of the complex between target and ligand, obtained from inhibition or displacement. In general, solubility refers to the dissolved amount per volume that the medium holds. As a reminder, the microsomal CLint is the capacity of the preparation to metabolise the compound, expressed as a volume cleared per time. On to `CC1=C(C(=O)OC(C)C)C(c2ccco2)n2c(nc3cc(Cl)ccc32)N1` (centres unmarked) [16j], for which the “% at 1 μM hA1 (percentage displacement of specific binding)” value on hA1AR is given as 35%. On hA2AAR, the “% at 1 μM hA2A (percentage displacement of specific binding)” value is reported as 24%. Also, the Ki on hA2BAR (setting [3]) worked out at 5.03 ± 0.3 nM. Moreover, at hA2BAR, the “Exp. dG” value is on record as -11.31 and the Ki is less than 10 nM. In addition, on A2BAR, the Kb was 0.6 ± 0.2 nM. This molecule also showed a solubility at 4 h in data set [1] of 23.7 µM (≈ 8.81 µg/mL). In data set [2], the “microsomal stability percent (percentage remanent)” value (from here on “microsomal stability percent”) came to 22.75%, the microsomal CLint at 1 h was determined as 18.6 µL/min/mg and the half-life at 1 h turned out to be 28.1 min.
For `CC1=C(C(=O)OC(C)C)C(c2ccco2)n2c(nc3cc(Br)ccc32)N1` (centres unmarked) [16r], the “% at 1 μM hA1 (percentage displacement of specific binding)” value on hA1AR was found to be 25%. Moreover, at hA2AAR, the “% at 1 μM hA2A (percentage displacement of specific binding)” value was found to be 2%. For the same molecule, the inhibition constant Ki at hA2BAR (setting [3]) stood at 5.23 ± 0.4 nM. In addition, on hA2BAR, the Ki was less than 10 nM. Besides, the Kb on A2BAR was found to be 1.7 ± 0.6 nM. Moreover, the solubility at 4 h in data set [1] is 70.7 µM (≈ 29.4 µg/mL). In data set [2], the “microsomal stability percent” value came out at 32.13%, the microsomal CLint at 1 h amounted to 14.2 µL/min/mg and the half-life at 1 h came out at 36.8 min.
Regarding `CC1=C(C(=O)OC(C)C)C(c2ccco2)n2c(nc3cc(F)ccc32)N1` (centres unmarked) [16b], the “% at 1 μM hA1 (percentage displacement of specific binding)” value at hA1AR worked out at 11%. At hA2AAR, the “% at 1 μM hA2A (percentage displacement of specific binding)” value stood at 2%. Besides, the inhibition constant (Ki) at hA2BAR (setting [3]) came to 3.05 ± 0.7 nM. Further, at hA2BAR, the “Exp. dG” value is -11.61 and the Ki was less than 10 nM. On A2BAR, the Kb came out at 0.8 ± 0.2 nM. In data set [1], this molecule displayed a solubility at 4 h of 47.5 µM (≈ 16.9 µg/mL). In data set [2], the “microsomal stability percent” value is recorded as 19.83%, the microsomal CLint at 1 h is 20.1 µL/min/mg and the half-life at 1 h was 27.4 min.
